Measurements reported in patent publication US20050165029A1, “Pyrrolopyrimidine derivatives and analogs and their use in the treatment and prevention of diseases” (Ambit Biosciences Corporation, priority 2004, published 2005).
pKd: −log10 of the molar value.

Tests used:
TNIK = biological target: T1, TNIK (Homo sapiens, UniProt Q9UKE5); assay: TNIK (DKIN) Binding Assay
T1 construct: made in house; host or cells: T7 bacteriophage display
Source text: (§1) Methods for measuring binding affinities for interactions between small molecules and kinases including FLT3, c-KIT, ABL(T334I) [a.k.a. ABL(T315I)], VEGFR-2 (a.k.a. KDR), and EGFR are described in detail in U.S. application Ser. No. 10/873,835, which is incorporated by reference herein in its entirety. The components of the assays include human kinases expressed as fusions to T7 bacteriophage particles and immobilized ligands that bind to the ATP site of the kinases. […] If the test compound binds the kinase it competes with the immobilized ligand and prevents binding to the solid support. […] The results are read out by quantitating the amount of fusion protein bound to the solid support, which is accomplished by either traditional phage plaque assays or by quantitative PCR (qPCR) using the phage genome as a template. […] The concentration of test molecule that reduces the number of phage bound to the solid support by 50% is equal to the Kd for the interaction between the kinase and the test molecule. Typically, data are collected for twelve concentrations of test compound and, the resultant binding curve is fit to a non-cooperative binding isotherm to calculate Kd.
(§2) Described in the exemplary assays below is data from binding with varying kinases. […] The term “ND” represents non-determined values.

MARK2 = biological target: T2, MARK2 (Homo sapiens, UniProt Q7KZI7); assay: MARK2 (SKIN) Binding Assay
T2 construct: made in house; host or cells: T7 bacteriophage display
Source text: as §1, §2

ABL2 = biological target: T3, ABL2 (Homo sapiens, UniProt P42684); assay: ABL2 (DKIN) binding assay
T3 construct: made in house; host or cells: T7 bacteriophage display
Source text: as §1, §2

PLK 4 = biological target: T4, PLK 4 (Homo sapiens, UniProt O00444); assay: PLK 4 (SKIN) Binding Assay
T4 construct: made in house; host or cells: T7 bacteriophage display
T4 sequence (O00444 1-970): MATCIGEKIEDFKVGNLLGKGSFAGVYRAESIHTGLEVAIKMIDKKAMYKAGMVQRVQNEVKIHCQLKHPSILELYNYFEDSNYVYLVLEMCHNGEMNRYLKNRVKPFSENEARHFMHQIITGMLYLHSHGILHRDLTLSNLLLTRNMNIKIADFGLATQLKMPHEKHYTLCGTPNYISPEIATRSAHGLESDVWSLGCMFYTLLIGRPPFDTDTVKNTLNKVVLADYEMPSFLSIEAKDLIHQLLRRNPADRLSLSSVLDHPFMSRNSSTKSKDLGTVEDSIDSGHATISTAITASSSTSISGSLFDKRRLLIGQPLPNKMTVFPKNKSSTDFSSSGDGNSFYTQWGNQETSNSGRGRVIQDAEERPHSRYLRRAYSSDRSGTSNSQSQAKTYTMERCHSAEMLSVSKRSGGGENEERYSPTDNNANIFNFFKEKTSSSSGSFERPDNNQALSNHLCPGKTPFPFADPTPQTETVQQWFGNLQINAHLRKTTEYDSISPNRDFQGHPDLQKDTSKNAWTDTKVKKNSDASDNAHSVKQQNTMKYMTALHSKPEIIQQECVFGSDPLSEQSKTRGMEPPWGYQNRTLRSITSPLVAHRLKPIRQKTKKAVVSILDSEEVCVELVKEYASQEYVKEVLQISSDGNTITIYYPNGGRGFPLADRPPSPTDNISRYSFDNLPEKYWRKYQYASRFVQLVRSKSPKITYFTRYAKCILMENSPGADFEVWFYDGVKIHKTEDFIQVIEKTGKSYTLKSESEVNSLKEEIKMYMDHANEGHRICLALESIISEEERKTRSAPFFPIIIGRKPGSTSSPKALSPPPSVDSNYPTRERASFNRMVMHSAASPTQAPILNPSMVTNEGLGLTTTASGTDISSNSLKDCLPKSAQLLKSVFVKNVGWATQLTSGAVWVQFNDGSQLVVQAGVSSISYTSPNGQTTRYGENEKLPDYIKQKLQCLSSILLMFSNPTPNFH
Source text: as §1, §2

T2 sequence (Q7KZI7 whole entry): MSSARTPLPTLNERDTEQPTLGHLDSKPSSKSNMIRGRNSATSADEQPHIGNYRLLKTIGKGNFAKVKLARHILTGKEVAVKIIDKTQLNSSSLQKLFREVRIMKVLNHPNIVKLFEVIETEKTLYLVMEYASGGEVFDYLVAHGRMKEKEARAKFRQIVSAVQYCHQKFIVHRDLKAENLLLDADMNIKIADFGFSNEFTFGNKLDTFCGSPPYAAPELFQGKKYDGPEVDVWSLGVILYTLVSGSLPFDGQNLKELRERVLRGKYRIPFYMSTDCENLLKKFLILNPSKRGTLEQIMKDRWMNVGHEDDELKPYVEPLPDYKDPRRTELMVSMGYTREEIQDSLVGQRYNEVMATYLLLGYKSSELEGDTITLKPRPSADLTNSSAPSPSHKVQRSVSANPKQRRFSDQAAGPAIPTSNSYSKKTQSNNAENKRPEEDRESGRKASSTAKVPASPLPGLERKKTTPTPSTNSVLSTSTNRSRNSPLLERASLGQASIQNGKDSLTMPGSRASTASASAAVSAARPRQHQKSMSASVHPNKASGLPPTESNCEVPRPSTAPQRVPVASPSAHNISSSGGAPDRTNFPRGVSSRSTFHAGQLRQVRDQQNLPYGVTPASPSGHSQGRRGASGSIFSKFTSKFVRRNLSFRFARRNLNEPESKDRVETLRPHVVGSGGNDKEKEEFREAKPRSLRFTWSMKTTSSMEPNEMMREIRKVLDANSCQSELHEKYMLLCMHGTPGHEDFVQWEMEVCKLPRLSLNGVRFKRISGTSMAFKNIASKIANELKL
T3 sequence (P42684 whole entry): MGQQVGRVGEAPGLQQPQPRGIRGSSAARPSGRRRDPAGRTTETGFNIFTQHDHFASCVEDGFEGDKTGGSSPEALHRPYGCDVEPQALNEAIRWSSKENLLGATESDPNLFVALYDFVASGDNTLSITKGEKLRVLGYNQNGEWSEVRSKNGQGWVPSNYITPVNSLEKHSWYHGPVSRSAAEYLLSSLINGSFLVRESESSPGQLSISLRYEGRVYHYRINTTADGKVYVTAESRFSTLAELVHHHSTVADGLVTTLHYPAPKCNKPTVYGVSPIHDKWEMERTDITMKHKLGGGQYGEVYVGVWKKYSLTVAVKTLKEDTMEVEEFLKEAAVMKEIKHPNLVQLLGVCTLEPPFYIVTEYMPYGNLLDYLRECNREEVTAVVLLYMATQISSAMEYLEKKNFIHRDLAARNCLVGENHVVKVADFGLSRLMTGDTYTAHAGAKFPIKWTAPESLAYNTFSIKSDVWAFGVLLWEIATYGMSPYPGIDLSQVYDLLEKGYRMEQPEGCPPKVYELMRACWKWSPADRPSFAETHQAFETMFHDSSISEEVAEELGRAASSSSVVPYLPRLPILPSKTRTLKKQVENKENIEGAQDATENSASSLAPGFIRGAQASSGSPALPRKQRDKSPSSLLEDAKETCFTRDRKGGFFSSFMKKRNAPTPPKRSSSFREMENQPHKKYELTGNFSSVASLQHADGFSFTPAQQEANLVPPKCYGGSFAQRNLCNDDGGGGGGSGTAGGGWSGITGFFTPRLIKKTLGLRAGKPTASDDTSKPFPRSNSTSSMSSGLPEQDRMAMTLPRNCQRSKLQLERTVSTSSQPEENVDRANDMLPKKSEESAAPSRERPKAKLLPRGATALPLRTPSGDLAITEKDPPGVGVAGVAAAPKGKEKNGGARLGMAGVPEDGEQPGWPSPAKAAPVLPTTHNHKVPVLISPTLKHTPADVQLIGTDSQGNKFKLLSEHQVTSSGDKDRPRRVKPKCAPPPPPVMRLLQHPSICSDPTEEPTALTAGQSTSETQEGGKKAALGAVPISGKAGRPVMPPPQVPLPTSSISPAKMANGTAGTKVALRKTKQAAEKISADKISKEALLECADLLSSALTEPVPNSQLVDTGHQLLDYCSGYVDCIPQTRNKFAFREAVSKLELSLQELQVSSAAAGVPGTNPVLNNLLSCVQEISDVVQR
T1 sequence (Q9UKE5 whole entry): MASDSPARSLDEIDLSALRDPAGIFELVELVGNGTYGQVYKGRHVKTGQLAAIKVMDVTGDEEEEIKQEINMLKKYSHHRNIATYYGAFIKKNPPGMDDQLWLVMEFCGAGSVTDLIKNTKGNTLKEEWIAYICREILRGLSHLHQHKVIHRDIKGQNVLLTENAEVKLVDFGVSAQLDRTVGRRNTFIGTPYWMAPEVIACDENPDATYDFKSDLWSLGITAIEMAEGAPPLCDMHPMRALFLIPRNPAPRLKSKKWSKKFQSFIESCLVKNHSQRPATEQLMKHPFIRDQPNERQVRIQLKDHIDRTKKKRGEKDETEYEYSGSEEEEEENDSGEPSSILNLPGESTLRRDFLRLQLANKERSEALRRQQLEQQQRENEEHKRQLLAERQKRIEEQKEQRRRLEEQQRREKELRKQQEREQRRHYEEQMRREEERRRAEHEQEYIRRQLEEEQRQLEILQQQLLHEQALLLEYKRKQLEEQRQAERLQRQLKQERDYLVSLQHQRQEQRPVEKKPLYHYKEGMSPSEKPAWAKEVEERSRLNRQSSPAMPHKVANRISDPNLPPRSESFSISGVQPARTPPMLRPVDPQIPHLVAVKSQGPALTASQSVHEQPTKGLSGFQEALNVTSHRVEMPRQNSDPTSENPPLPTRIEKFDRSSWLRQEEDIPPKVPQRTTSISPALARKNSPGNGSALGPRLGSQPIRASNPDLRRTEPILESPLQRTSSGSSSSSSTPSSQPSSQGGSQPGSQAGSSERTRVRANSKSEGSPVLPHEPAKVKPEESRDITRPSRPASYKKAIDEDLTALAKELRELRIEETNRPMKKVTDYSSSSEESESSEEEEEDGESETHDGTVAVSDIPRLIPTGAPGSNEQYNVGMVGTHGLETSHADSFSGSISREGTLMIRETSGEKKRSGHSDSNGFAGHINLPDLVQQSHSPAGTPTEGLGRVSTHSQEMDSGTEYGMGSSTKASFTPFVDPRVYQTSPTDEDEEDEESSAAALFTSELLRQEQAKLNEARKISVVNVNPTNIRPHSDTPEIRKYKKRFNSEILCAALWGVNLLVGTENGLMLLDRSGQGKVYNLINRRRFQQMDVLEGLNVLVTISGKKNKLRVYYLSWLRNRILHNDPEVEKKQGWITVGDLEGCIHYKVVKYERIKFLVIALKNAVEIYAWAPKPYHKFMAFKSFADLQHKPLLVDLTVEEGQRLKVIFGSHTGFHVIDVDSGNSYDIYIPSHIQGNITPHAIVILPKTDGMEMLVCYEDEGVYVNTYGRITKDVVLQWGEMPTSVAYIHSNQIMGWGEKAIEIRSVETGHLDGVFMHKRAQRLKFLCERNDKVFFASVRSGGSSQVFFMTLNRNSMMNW

Oc1ccc(-c2cc3c(Sc4cccc(Cl)c4)ncnc3[nH]2)cc1 [Compound L2]
pKd (TNIK): > 7.00
pKd (MARK2): < 5.00
pKd (ABL2): 5.00 to 6.00
pKd (PLK 4): < 5.00
